Results reported in ChEMBL document CHEMBL2057068, “Quinolylhydrazones as novel inhibitors of Plasmodium falciparum serine protease PfSUB1” (Bioorg Med Chem Lett, 2012).

Experiments:
[1] = target: T1, Subtilisin-like protease 1 (Plasmodium falciparum) (UniProt O61142); assay: Inhibition of Plasmodium falciparum SUB1 assessed as residual hydrolytic activity at 50 uM by fluorimetric assay
T1 sequence (whole entry): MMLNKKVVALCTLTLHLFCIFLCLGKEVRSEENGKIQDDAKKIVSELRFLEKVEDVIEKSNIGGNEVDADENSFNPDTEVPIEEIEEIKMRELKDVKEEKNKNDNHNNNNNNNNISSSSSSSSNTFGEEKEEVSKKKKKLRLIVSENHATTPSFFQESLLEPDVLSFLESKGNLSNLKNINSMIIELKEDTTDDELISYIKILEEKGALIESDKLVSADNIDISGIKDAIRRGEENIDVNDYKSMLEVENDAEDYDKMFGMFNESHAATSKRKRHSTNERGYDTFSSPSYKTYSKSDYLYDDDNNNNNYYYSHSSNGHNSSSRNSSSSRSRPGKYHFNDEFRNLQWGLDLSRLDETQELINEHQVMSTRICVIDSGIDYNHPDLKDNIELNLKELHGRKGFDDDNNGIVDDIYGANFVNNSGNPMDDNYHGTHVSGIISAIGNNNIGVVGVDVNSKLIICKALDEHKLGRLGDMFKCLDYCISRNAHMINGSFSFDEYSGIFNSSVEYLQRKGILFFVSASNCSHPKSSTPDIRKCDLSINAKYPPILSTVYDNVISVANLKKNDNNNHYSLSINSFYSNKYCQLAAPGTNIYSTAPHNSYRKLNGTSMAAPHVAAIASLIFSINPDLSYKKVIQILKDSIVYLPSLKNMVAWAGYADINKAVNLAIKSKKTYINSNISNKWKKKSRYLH

[2] = target: T2, Subtilisin-like protease 1 (Plasmodium falciparum, UniProt O61142); assay: Inhibition of Plasmodium falciparum SUB1 by fluorimetric assay
T2 sequence (O61142 whole entry): T1 sequence (whole entry)

Structure (SMILES) | Activity [1] [%] | IC50 [2] [µM]
Cc1cc(NNC(=O)c2ccc([N+](=O)[O-])cc2)c2cc3c(cc2n1)OCO3 | 64.4 | 
Cc1cc(N/N=C/c2ccc(Br)cc2)c2cc3c(cc2n1)OCO3 | 78.2 | 
CSc1ccc(/C=N/Nc2cc(C)nc3cc4c(cc23)OCO4)cc1 | 77.5 | 
Cc1cc(N/N=C/c2ccccc2C(F)(F)F)c2cc3c(cc2n1)OCO3 | 100 | 
Cc1cc(NNC(=O)c2ccc(S(C)(=O)=O)cc2)c2cc3c(cc2n1)OCO3 | 68.7 | 
Cc1cc(N/N=C/c2ccc(C(F)(F)F)cc2)c2cc3c(cc2n1)OCO3 | 86.1 | 
C/C(=N\Nc1cc(C)nc2cc3c(cc12)OCO3)c1ccc([N+](=O)[O-])cc1 | 60.3 | 
Cc1cc(NNC(=O)c2ccc(C#N)cc2)c2cc3c(cc2n1)OCO3 | 85.5 | 
Cc1cc(N/N=C/c2ccc(NS(C)(=O)=O)cc2)c2cc3c(cc2n1)OCO3 | 72.2 | 
CCOC(OCC)c1ccc(/C=N/Nc2cc(C)nc3cc4c(cc23)OCO4)cc1 | 75.6 | 
Cc1cc(N/N=C/c2ccc([S+](C)[O-])cc2)c2cc3c(cc2n1)OCO3 (configuration not stated) | 92.4 | 
COC(=O)c1ccc(/C=N/Nc2cc(C)nc3cc4c(cc23)OCO4)cc1 | 85 | 
Cc1cc(N/N=C/c2ccc(C(F)(F)F)cc2C(F)(F)F)c2cc3c(cc2n1)OCO3 | 62.1 | 
Cc1cc(N/N=C/c2ccc(C(=O)O)cc2)c2cc3c(cc2n1)OCO3 | 75.5 | 
Cc1cc(N/N=C/c2ccc(/C(N)=N/O)cc2)c2cc3c(cc2n1)OCO3 | 73.9 | 

The next lines start with the values.

Activity [1] [%] | IC50 [2] [µM] | Structure (SMILES)
84.6 |  | O=[N+]([O-])c1ccc(/C=N/Nc2ccncc2)cc1
70.9 |  | CC(=O)Nc1ccc(/C=N/Nc2cc(C)nc3cc4c(cc23)OCO4)cc1
72.2 |  | Cc1cc(/N=C/c2ccc([N+](=O)[O-])cc2)c2cc3c(cc2n1)OCO3
12.3 | 20 | COc1ccc2nc(C)cc(N/N=C/c3ccc([N+](=O)[O-])cc3)c2c1
86.5 |  | Cc1cc(N/N=C/c2ccc(C=O)cc2)c2cc3c(cc2n1)OCO3
97.2 |  | Cc1cc(N/N=C/c2cccc([N+](=O)[O-])c2)c2cc3c(cc2n1)OCO3
43.1 | > 50 | O=[N+]([O-])c1ccc(C=NNc2nc3ccccc3[nH]2)cc1
46.7 |  | O=C(NNc1nc2ccccc2[nH]1)c1ccc([N+](=O)[O-])cc1
38.6 | 40 | Cc1cc(N/N=C/c2ccccc2[N+](=O)[O-])c2cc3c(cc2n1)OCO3
81.5 |  | N#Cc1ccc(/C=N/Nc2c3c(nc4ccccc24)CCCC3)cc1
27.2 | 20 | Cc1cc(N/N=C/c2ccc([N+](=O)[O-])cc2)c2cc3c(cc2n1)OCO3
76.4 |  | Cc1cc(N/N=C/c2ccc(S(C)(=O)=O)cc2)c2cc3c(cc2n1)OCO3
55.8 | > 50 | O=[N+]([O-])c1ccc(/C=N/Nc2c3c(nc4ccccc24)CCCC3)cc1
85 |  | Cc1cc(N/N=C/c2ccc(C#N)cc2)c2ccccc2n1
74.3 |  | N#Cc1ccc(/C=N/Nc2ccnc3ccccc23)cc1
77.9 |  | Cc1cc(N/N=C/c2ccc(Cl)cc2)c2cc3c(cc2n1)OCO3
29.2 | 40 | Cc1cc(N/N=C/c2ccc(C#N)cc2)c2cc3c(cc2n1)OCO3
32.4 | 50 | COc1ccc2nccc(N/N=C/c3ccc([N+](=O)[O-])cc3)c2c1
97 |  | Cc1cc(N/N=C/c2ccc(F)cc2)c2cc3c(cc2n1)OCO3
80.6 |  | O=[N+]([O-])c1ccc(/C=N/Nc2ccnc3ccccc23)cc1
